Patent US7449495B2, “Retinoid derivatives with antiangiogenic, antitumoral and proapoptotic activities” (Sigma-Tau Industrie Farmaceutiche Riunite S.p.A., priority 2001, dated 2008)

What was measured:
[1] = test system: osteosarcoma SAOS; assay: Cytotoxicity test (sulphorodamine B), SAOS; format: cell-based; conditions: Homo sapiens, 24 h incubation, survival 48 h after removal
From the text: (§1) Different cell lines deriving from solid tumors were also used. • 1. Human prostate carcinoma PC3 and DU145. These cell lines were maintained in RPMI 1640 medium containing 10% FCS, 1% sodium pyruvate and 1% glutamine; • 2. Human colon adenocarcinoma LoVo. This cell line was maintained in HAM's F-12 medium, containing 10% FCS and 1% glutamine. • 3. Human ovarian carcinoma such as A2780 and A2780/Dx, sensitive and resistant to drugs, respectively (doxorubicin, taxol, etoposide, vincristine); IGROV-1 and IGROV-1/Pt, sensitive and resistant to platinum-based chemotherapy, respectively, were maintained in RPMI 1640 medium containing 10% FCS, 1% sodium pyruvate and 1% glutamine; • 4. Human melanoma MeWo and MeS 2.21, glioblastoma GBM, no small cell lung carcinomas A431, NCI—H460, osteosarcomas SAOS and U2OS were maintained in RPMI 1640 medium containing 10% FCS, 1% sodium pyruvate and 1% glutamine.
(§2) The cytotoxicity tests were carried out using NB4 or HL-60 cells in suspension (10000/well). The cells were seeded in a volume of 250 μl in 96 well plates and incubated for 24 hours at 37° C. […] The optical density was measured using a Multiskan spectrophotometer at 540 nm. […]
(§3) Cell survival was determined by incubation with ST1926 for 24 hours, 48 hours after the removal of the compound. […]

[2] = test system: Murine pulmonary adenocarcinoma Madison 109 (M109); assay: Antitumoral activity in murine pulmonary carcinoma model M109; format: in vivo, BALB/c mouse; conditions: qdx5x3w; for TVI %: 2 days after final administration
Method: Murine pulmonary adenocarcinoma Madison 109 cells (M109) were maintained by s.c. passage of tumor fragments. The day of inoculation, the cell suspension was injected i.m. in the rear left limb of a 20 g male BALB/c mouse at a density of 3×10^5 cells/mouse. 3LL murine Lewis lung carcinoma was routinely maintained by i.m. passages (every 10-14 days) of 1×10^5 cells/mouse in C57BL/6J mice. For antitumor activity experiments, tumors were excised from donor mice and after mechanical desegregation and enzymatic digestion tumor cell viability was assessed by the trypan blue dye exclusion test. Then, 1×10^5 cells/100 μl/mouse were injected i.m. into the right hind leg muscle of C57BL/6J mice.
Tumor dimension measurements were performed using a digital calliper (Vernier Caliper) from the day in which the mass became measurable, twice weekly. The tumor mass was assessed from the size of the two principal dimensions (length and breadth), expressed in mm, applying the formula (length×breadth^2)/2 that is, the tumor volume in mm3. For every experimental group the percentage of inhibition of tumor volume (TVI %) was calculated, with respect to that of the control that is (100−(T/C %). TVI was evaluated 2 days after the final administration of ST1926.
The mean survival time (MST) was also measured and the increase in mean life-span expressed as ILS % (increase of life span) calculated as (MSTT/MSTC)×100−100.
The comparison between the values of TVI and of survival time, obtained for each group were performed with the non parametric Mann Whitney test for non paired data, using the Instat software from GraphPad inc.
The ST1926 solution was prepared immediately before use and solubilised in cremophor:ethanol 1:1 and subsequently diluted 1:4 in buffered saline solution. The treatments of the animals were carried out in a volume of 10 ml/kg. The treatment scheme for ST1926 at different doses was for 5 consecutive days (qdx5), beginning 1 day after the inoculation with the tumoral cells and was repeated for 3 cycles.
The mice (8 for each group) were weighed prior to each treatment, firstly, so as to be able to administer the correct quantity of substance, based on the eventual variations in weight observed throughout the period of drug administration, and also to be able to register the maximum weight loss throughout the treatment (BWL % max).

[3] = test system: Human prostate carcinoma PC3; assay: Cytotoxicity test (sulphorodamine B), PC3; format: cell-based; conditions: 24 h incubation, survival 48 h after removal, read-out: IC50
From the text: as §1, §2, §3

O=C(O)/C=C/c1ccc(-c2ccc(O)c(C34CC5CC(CC(C5)C3)C4)c2)cc1 [ST1926, E-4-(3-(1-adamantyl)-4-hydroxyphenyl)cinnamic acid]
IC50 [1]: 250 nM
BWL % Max ([2]; M109, 10 mg/kg i.p.): 9%
ILS % ([2]; M109, 10 mg/kg i.p.): 27%
MST (range days) ([2]; M109, 10 mg/kg i.p.): *28 (25-35) days
TVI % ([2]; M109, 10 mg/kg i.p.): 18%
BWL % Max ([2]; M109, 10 mg/kg p.o.): 10%
ILS % ([2]; M109, 10 mg/kg p.o.): 59%
MST (range days) ([2]; M109, 10 mg/kg p.o.): **35 (27-42) days
TVI % ([2]; M109, 10 mg/kg p.o.): *49%
BWL % Max ([2]; M109, 15 mg/kg i.p.): 10%
ILS % ([2]; M109, 15 mg/kg i.p.): 64%
MST (range days) ([2]; M109, 15 mg/kg i.p.): **36 (30-42) days
TVI % ([2]; M109, 15 mg/kg i.p.): *46%
IC50 [3]: 210 nM
